Earlier results in patent US20020102214A1, “Paramagnetic material-containing magnetic resonance external marker or calibration composition” (NYCOMED IMAGING AS., priority 1996, published 2002).

Settings: at MRI fields, between 20° C. to 35° C., based on relaxivity data

variation of signal intensity with temperature: about 20%
Compound: O=C([O-])CN(CCN(CC(=O)[O-])CC(=O)O)CCN(CC(=O)[O-])CC(=O)O.[Gd+3] [GdDTPA]
